We go through eight compounds from ChEMBL document CHEMBL5465560, “Selectivity Literature for EUbOPEN Chemogenomic Library” (2024).

The target in assay [1] is Protein kinase C theta type (Homo sapiens, UniProt Q04759). The settings on record: at 10 µM.
The target of assay [2] is Mitogen-activated protein kinase 8 (Homo sapiens, UniProt P45983). The following applies: at 10 µM.
Assay [3] concerns the target Focal adhesion kinase 1 (Homo sapiens, UniProt Q05397). The assay can be described thus: Selectivity interaction (KinomeScan (DiscoverX)) EUB0001079a PTK2. The following applies: at 1 µM.
Assay [4] deals with Tyrosine-protein kinase ABL1 (Homo sapiens), P00519 [Q252H]. In words: Selectivity interaction (KinomeScan (DiscoverX)) EUB0001049a ABL1. The settings on record: at 1 µM.
Assay [5] concerns the target Ribosomal protein S6 kinase alpha-1 (Homo sapiens, UniProt Q15418). In words: Selectivity interaction (KinomeScan (DiscoverX)) EUB0001049a RPS6KA1. The following applies: at 1 µM.
Assay [6] has as its target T1, Membrane-associated tyrosine- and threonine-specific cdc2-inhibitory kinase (Homo sapiens) (UniProt Q99640).
T1 sequence (whole entry): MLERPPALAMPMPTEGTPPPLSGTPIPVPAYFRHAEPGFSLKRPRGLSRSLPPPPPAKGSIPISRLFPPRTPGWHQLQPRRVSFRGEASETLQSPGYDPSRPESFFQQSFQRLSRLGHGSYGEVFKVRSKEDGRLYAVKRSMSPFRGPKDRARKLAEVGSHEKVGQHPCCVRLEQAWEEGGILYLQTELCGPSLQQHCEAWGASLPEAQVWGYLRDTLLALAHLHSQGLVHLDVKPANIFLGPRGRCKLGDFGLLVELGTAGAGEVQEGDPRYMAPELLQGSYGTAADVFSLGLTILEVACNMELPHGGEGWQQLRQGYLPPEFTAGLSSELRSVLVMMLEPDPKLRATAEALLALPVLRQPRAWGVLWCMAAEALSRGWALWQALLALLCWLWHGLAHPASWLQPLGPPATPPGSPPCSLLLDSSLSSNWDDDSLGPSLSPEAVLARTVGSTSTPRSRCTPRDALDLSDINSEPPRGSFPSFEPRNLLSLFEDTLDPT
In words: Selectivity interaction (KinomeScan (DiscoverX)) EUB0000655a PKMYT1. The settings on record: at 10 µM.

Assay [7] has as its target Cyclin-dependent kinase 15 (Homo sapiens) (UniProt Q96Q40). In words: Selectivity interaction (KinomeScan (DiscoverX)) EUB0000045b CDK15.
Assay [8] deals with T2, Ephrin type-B receptor 1 (Homo sapiens) (UniProt P54762).
T2 sequence (whole entry): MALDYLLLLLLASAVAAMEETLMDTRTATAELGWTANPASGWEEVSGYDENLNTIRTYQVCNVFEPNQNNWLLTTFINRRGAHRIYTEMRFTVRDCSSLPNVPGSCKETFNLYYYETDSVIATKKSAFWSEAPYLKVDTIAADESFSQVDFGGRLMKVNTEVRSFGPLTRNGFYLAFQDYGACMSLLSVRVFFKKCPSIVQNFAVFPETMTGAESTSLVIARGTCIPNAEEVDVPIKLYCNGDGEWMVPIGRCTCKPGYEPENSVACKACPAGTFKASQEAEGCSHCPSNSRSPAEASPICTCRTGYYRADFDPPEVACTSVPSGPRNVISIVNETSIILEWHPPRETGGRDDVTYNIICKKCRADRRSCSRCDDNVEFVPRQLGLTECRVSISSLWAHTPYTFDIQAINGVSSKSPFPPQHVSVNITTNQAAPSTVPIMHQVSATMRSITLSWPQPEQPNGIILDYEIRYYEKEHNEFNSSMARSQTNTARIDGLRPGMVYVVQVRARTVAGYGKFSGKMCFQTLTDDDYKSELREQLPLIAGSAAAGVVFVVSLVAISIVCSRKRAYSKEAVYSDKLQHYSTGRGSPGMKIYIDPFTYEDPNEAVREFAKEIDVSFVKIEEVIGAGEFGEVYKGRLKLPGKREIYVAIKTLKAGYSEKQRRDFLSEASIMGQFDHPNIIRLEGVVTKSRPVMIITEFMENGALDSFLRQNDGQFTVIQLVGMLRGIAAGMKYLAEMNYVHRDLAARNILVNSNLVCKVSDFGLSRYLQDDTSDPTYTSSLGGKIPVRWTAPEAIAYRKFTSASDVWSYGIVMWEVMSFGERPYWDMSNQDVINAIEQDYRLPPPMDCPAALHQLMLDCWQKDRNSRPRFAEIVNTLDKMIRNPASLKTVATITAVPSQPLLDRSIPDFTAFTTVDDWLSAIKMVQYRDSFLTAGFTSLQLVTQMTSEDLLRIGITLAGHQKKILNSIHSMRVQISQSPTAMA
In words: Selectivity interaction (ActivX KiNativ screen (kinase selectivity in THP-1 cell lysates)) EUB0000639a EPHB1. In kind it is subcellular. The settings on record: lysate.

Assay [9] concerns the target T3, Serine/threonine-protein kinase TBK1 (Homo sapiens) (UniProt Q9UHD2).
T3 sequence (whole entry): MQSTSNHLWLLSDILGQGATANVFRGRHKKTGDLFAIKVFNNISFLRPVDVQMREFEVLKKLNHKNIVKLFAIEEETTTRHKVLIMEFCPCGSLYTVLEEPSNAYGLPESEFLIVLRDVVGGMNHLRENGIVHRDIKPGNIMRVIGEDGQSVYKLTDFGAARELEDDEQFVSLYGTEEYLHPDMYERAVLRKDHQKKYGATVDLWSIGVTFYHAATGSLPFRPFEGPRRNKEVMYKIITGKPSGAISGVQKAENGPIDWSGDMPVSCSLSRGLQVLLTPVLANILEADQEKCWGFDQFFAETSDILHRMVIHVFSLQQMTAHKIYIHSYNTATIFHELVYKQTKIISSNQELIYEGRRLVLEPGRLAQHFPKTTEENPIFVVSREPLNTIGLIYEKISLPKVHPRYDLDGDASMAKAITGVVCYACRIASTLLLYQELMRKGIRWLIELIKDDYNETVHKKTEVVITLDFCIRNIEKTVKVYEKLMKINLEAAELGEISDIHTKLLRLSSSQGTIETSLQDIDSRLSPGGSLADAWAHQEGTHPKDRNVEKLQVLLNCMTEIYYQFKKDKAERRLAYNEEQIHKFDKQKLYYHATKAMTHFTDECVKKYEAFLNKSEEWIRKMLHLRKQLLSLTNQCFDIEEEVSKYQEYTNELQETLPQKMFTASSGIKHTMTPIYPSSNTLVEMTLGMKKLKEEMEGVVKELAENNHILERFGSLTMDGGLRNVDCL
In words: Selectivity interaction (KinomeScan (DiscoverX)) EUB0000618a TBK1. The following applies: at 10 µM.

Sequence of Cyclin-dependent kinase 15 (Homo sapiens) (Q96Q40 whole entry): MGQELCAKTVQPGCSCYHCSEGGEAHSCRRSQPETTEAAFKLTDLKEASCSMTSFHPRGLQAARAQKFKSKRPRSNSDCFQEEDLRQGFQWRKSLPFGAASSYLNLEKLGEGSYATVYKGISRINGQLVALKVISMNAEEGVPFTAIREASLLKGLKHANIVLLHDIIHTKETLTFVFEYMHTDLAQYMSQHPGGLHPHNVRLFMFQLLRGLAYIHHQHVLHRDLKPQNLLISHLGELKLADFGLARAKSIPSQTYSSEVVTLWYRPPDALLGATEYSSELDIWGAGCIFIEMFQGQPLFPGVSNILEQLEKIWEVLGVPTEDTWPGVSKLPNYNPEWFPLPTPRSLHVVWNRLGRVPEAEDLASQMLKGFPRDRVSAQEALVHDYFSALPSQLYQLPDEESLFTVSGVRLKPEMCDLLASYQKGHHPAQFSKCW
Sequence of Focal adhesion kinase 1 (Q05397 2-1052 limits assumed): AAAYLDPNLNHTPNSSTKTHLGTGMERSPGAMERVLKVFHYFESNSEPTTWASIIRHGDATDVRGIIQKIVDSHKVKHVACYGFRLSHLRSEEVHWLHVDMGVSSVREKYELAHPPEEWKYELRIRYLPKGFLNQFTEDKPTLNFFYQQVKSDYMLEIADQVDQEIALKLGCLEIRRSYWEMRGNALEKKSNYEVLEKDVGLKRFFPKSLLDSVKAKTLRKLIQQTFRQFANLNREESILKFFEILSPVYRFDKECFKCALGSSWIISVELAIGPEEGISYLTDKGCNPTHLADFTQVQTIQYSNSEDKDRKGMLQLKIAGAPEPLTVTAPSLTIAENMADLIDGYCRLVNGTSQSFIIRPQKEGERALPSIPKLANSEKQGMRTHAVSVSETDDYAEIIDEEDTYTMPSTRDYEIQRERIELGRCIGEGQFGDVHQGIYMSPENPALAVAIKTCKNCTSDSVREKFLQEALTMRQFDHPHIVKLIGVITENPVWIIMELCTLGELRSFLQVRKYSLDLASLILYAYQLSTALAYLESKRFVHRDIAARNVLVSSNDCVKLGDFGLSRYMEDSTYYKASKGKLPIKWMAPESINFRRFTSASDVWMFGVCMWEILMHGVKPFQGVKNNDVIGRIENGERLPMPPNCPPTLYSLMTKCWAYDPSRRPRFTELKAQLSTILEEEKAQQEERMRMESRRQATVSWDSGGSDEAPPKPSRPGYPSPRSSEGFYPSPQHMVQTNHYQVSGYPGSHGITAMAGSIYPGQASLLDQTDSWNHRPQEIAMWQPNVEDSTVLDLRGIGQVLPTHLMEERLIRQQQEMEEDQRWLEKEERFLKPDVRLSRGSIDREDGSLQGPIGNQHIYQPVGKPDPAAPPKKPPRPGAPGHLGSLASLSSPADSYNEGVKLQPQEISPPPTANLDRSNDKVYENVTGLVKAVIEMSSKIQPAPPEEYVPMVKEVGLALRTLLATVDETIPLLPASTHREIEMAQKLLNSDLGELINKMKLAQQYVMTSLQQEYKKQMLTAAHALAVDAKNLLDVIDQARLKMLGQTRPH
Sequence of Ribosomal protein S6 kinase alpha-1 (Q15418 whole entry): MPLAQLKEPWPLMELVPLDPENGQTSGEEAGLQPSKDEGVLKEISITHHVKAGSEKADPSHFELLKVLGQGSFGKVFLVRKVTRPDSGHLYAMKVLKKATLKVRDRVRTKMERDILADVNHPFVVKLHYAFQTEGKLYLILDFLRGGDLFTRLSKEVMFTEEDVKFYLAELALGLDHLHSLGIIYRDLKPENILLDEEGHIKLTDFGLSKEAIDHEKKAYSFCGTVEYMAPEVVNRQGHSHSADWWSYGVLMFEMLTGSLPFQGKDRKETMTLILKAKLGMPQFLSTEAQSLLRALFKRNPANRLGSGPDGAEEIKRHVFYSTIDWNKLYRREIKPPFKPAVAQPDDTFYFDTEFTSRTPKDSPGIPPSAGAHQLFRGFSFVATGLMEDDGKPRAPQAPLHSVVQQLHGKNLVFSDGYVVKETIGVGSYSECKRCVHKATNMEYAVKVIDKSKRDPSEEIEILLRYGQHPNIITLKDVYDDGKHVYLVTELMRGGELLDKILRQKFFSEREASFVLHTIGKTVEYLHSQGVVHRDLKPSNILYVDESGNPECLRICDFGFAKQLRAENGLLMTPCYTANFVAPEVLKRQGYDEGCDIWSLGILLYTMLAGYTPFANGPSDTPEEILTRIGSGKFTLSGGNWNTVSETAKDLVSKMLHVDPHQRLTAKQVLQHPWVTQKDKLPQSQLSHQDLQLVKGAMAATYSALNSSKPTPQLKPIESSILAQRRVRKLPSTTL
Sequence of Protein kinase C theta type (Q04759 whole entry, looked up): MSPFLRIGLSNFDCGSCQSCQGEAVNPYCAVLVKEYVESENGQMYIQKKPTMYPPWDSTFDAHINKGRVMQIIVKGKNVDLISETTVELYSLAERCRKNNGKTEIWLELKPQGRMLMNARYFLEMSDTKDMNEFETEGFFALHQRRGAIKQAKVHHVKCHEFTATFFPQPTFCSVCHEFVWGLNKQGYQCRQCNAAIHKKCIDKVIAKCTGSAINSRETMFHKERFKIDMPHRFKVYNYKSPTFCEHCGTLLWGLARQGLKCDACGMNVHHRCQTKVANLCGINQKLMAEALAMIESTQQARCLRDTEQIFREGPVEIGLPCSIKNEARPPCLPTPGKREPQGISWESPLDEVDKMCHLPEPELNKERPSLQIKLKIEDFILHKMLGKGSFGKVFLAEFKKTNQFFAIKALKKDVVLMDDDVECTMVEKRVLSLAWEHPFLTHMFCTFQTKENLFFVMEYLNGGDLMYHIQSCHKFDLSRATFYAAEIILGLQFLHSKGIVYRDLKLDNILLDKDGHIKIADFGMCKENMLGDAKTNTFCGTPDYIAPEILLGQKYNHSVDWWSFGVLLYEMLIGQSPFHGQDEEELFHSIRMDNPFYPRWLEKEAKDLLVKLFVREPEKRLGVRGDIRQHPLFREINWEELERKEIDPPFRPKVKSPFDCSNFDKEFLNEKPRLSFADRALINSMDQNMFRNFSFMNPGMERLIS
Sequence of Mitogen-activated protein kinase 8 (P45983 whole entry): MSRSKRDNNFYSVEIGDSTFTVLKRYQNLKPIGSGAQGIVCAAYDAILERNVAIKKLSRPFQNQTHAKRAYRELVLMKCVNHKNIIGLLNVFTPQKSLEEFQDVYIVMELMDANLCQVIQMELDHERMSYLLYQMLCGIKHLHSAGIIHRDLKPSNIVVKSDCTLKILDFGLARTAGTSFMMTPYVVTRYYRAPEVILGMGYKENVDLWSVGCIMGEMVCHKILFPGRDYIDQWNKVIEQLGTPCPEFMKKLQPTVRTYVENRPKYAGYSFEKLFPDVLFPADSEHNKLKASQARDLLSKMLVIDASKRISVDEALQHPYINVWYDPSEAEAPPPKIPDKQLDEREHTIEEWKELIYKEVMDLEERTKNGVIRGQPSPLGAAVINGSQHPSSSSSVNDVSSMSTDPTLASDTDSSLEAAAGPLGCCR

In assay [1], `Cc1cc([C@@H](C)Nc2ccccc2C(=O)O)c2nc(N3CCOCC3)cc(=O)n2c1` [AZD-6482] yielded a % of control of 97%.

In assay [2], `CCN(CC)CCCCNc1ncc2cc(-c3cc(OC)cc(OC)c3)c(NC(=O)NC(C)(C)C)nc2n1` showed a % of control of 100%.

In assay [3], `Nc1cnc(N2CCc3cc(S(=O)(=O)Nc4c(F)cc(Cl)cc4F)cc(N4CCCC4=O)c32)nc1` [TP-020n] had a % of control of 99%.

As for `COc1cc(Nc2nc(C)cc(-c3cnn4nc(OC)ccc34)n2)cc(C(F)(F)F)c1`, the % of control in assay [4] is 80%; in assay [5], 88%.

On to `CN(C)CCOc1ccc(-c2nc(-c3ccncc3)c(-c3ccc4c(c3)CC/C4=N\O)[nH]2)cc1`, for which the % of control in [6] came to 100%.

In the case of `C=CC(=O)Nc1cc(-n2c(=O)ccc3cnc4ccc(-c5ccc(NS(C)(=O)=O)cc5)cc4c32)ccc1C`, the results for the % of control in assay [7] (at 1 µM) and in assay [7] (at 10 µM) were 100% and 72%, respectively.

`CC[C@@H]1[C@H](F)C(=O)N[C@@H]1COc1nccc2cc(C(N)=O)c(OC)cc12` [ZIMLOVISERTIB]: the % of inhibition is -7% in assay [8] (at 0.01 µM); -38.7% in assay [8] (at 0.04 µM); -5.5% in assay [8] (at 0.2 µM); -14.3% in assay [8] (at 1 µM); -6.5% in assay [8] (at 5 µM).

Consider `O[C@H]1CC[C@H](Nc2ncc3nc(Nc4c(F)cc(F)cc4F)n([C@H]4CCOC4)c3n2)CC1`, for which the % of control in assay [9] worked out at 74%.
